Laboratory results: paper PMC7749516, “Safety and nonclinical and clinical pharmacokinetics of PC945, a novel inhaled triazole antifungal agent” (Pharmacology Research & Perspectives, 2020)
Converted amounts (≈) assume the structure as drawn. “And” between values parts separate entries of the source, which are not always exact repeats. Equal values may be shown once.

Legend:
[1] = system: A. fumigatus strains; design: method as in PMID 28223388; settings: EUCAST method, 96 clinically isolated A. fumigatus strains; cited from earlier work
[2] = Clinical pharmacokinetics, single inhaled dose in subjects with mild asthma (Cohort 3); type: in vivo, human; settings: single inhaled 5 mg
Text: (§1) Part one consisted of a single dose escalation study (Cohort 1) and a repeat dose study (Cohort 2) of inhaled PC945 in healthy subjects. Part two comprised a single dose study of inhaled PC945 in subjects with mild asthma (Cohort 3). The doses selected were predicted to achieve target lung concentrations above the IC90/MIC90 for A. fumigatus (based on data from a range of in vitro and in vivo systems) throughout a 24‐hour period and with a suitable safety margin based on animal toxicology data.
In Cohort 3, nine subjects with mild asthma (six males and three females; mean age: 37.7 years, mean weight: 82.70 kg, mean BMI: 26.48 kg/m^2) received a single dose of PC945 5 mg or placebo (PC945:placebo = 2:1).
(§2) Serial blood samples were collected to determine plasma PC945 concentrations. For the single dose study in healthy subjects and in subjects with mild asthma, blood samples were collected predose and at 0.25, 0.5, 1, 2, 4, 6, 8, 24, 30, and 48 hours postend of inhalation and at the follow‐up visit. For the repeat dose study, blood samples were collected (a) predose and at 0.25, 0.5, 1, 2, 4, 6, 8, 10, 12, and 24 hours postend of inhalation on Days 1 and 7, and 30 and 48 hours on Day 7; (b) predose on Days 5 and 6; (c) at the follow‐up visit.

[3] = Clinical pharmacokinetics, repeat inhaled dose in healthy subjects (Cohort 2); type: in vivo, human
Text: as §1
Nine healthy subjects (four males and five females; mean age: 33.2 years, mean weight: 66.5 kg, mean BMI: 23.53 kg/m^2) whose forced expiratory volume over 1 second (FEV1) and forced vital capacity (FVC) were ≥80% of predicted values with an FEV1/FVC ratio >0.7, received once daily doses of PC945 5 mg or placebo for 7 days (Cohort 2, PC945:placebo = 2:1).
as §2
Attainment of steady state was assessed by visual inspection of the predose plots during the 7‐day treatment period in human subjects.

[4] = healthy subjects, 5 mg once daily, Day 1, geometric mean (CV%)
[5] = healthy subjects, 5 mg once daily, Day 7, geometric mean (CV%)

SMILES: Cc1cc(N2CCN(c3ccc(C(=O)Nc4ccc(F)cc4)cc3)CC2)ccc1OC[C@@H]1CO[C@@](Cn2cncn2)(c2ccc(F)cc2F)C1 [PC945]
- Geometric mean minimum inhibitory concentration (MIC) [1]: 0.17 µg/mL
- MIC50 [1]: 0.125 µg/mL (≈ 0.183 µM)
- MIC90 [1]: 1.0 µg/mL and 1 µg/mL
- AUC0–24h [2]: 4.95 ng·h/mL
- median t max [2]: 4 h
- C max ([2]; geometric mean): 0.335 ng/mL
- AUC0–24h [3, 4]: 6510 (60.0) pg*h/mL
- C max [3, 4]: 462 (68.0) pg/mL
- t max ([3]; healthy subjects, 5 mg once daily, Day 1, median (range)): 2 h and 2.10 (2.08‐4.08) h
- time of C max postend of inhalation ([3]; healthy subjects, 5 mg once daily, Day 7): 45 min
- C max [3, 5]: 951 (58.7) pg/mL
- t ½ [3, 5]: 132 (22.7) h
- t max ([3]; healthy subjects, 5 mg once daily, Day 7, median (range)): 0.745 (0.240‐10.1) h
- Cmax ([3]; human, inhaled doses, read-out: C max values obtained with inhaled doses): < 2 nM
- Predicted time to steady state ([3]; once daily dosing, human): approximately 5 weeks
